For 22 molecules, Ki and IC50 results are on record in patent US10336701B2, “Pyridin-2-one derivatives of formula (II) useful as EP3 receptor antagonists” (Janssen Pharmaceutica NV, priority 2017, dated 2019).

For assay [1], the target named is T1, EP3 receptor (Homo sapiens, UniProt P43115).
T1 construct: purchased Millipore HTS092M
T1 sequence (P43115 1-390): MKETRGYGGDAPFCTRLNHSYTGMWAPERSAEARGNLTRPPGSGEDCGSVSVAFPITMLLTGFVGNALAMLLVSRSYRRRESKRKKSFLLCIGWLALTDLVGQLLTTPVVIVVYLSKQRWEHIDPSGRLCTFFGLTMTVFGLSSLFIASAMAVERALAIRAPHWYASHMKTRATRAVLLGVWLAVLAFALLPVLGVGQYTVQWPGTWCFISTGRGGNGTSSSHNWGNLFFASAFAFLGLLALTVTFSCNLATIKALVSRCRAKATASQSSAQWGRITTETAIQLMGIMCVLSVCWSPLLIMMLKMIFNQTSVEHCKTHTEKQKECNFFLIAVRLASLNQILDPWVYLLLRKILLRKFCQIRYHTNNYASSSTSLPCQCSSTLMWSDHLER
Kind of assay: [3H]-PGE2 binding assay (EP3 competition binding). Particulars: read-out: [3H]-PGE2 Binding Ki. The gist of the method:
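Scintillation-bead competition binding with EP3 membranes (2 μg/well), 2 nM [3H]-PGE2, 0.1% DMSO, in 50 mM Tris, 10 mM MgCl2, 1 mM EDTA, pH 7.4.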

In assay [2] the target is T1, EP3 receptor. The experiment in a line: CHO cell cAMP assay (forskolin and sulprostone stimulated, HTRF). Particulars: CHO cells; sulprostone 700 nM (EC80) and FSK 2 μM (EC70), 37° C. for 30 minutes; read-out: CHO_cAMP IC50. It counts as cell-based. (In general: cAMP levels reflect the balance of adenylyl cyclase and phosphodiesterase activity.)

Each structure is given as a SMILES string.

As usually defined, the Ki is a measure of affinity in units of concentration, obtained from inhibition or displacement. In general, IC50 refers to the concentration at which inhibition is half-maximal. Take `CN(C)C1=NC(C)(c2ccc(-c3ccc4ccccc4c3)[nH]c2=O)CN1` (centres unmarked) [compound 289, 3-[2-(dimethylamino)-4-methyl-4,5-dihydro-1H-imidazol-4-yl]-6-(naphthalen-2-yl)-1,2-dihydropyridin-2-one]: the Ki at EP3 receptor [1] turned out to be 1.8 µM. At EP3 receptor [2], the IC50 was greater than 20 µM.

In the case of `CO/N=C1\NCC(c2cc(C)c(-c3ccc4cccc(F)c4c3)[nH]c2=O)(C(C)C)N1` (centres unmarked) [compound 293, (E)-6-(8-fluoronaphthalen-2-yl)-3-(4-isopropyl-2-(methoxyimino)imidazolidin-4-yl)-5-methylpyridin-2(1H)-one], the Ki on EP3 receptor [1] was 0.014 µM. Further, the IC50 on EP3 receptor [2] is 0.207 µM.

With `CC(C)C(NC(N)=O)c1ccc(-c2ccc3cccc(F)c3c2)[nH]c1=O` (centres unmarked) [compound 267, 1-(1-(6-(8-fluoronaphthalen-2-yl)-2-oxo-1,2-dihydropyridin-3-yl)-2-methylpropyl)urea], the Ki at EP3 receptor [1] came out at 0.006 µM. In addition, on EP3 receptor [2], the half-maximal inhibitory concentration (IC50) was 0.014 µM.

As to `NC(=O)C1(c2ccc(-c3ccc4ccccc4c3)[nH]c2=O)CCCC1` [compound 219, 1-(6-(naphthalen-2-yl)-2-oxo-2,3-dihydropyridin-3-yl)cyclopentanecarboxamide], the Ki at EP3 receptor [1] was 0.108 µM. For the same molecule, on EP3 receptor [2], the IC50 is 4.07 µM.

Take `CCn1cc2c(C)cc(-c3ccc(C(CC4OC(=O)NC4=O)C(C)C)c(=O)[nH]3)cc2n1` (centres unmarked) [compound 86, 5-(2-(6-(2-ethyl-4-methyl-2H-indazol-6-yl)-2-oxo-1,2-dihydropyridin-3-yl)-3-methylbutyl)oxazolidine-2,4-dione]: on EP3 receptor [1], the Ki is 0.114 µM. Besides, on EP3 receptor [2], the IC50 was found to be 0.916 µM.

In the case of `CC(C)C(C(=O)NS(=O)(=O)c1cc(Cl)c(Cl)s1)c1ccc(-c2ccc3cccc(F)c3c2)[nH]c1=O` (centres unmarked) [compound 175, N-(4,5-dichlorothiophen-2-ylsulfonyl)-2-(6-(8-fluoronaphthalen-2-yl)-2-oxo-1,2-dihydropyridin-3-yl)-3-methylbutanamide], the inhibition constant (Ki) at EP3 receptor [1] stood at 0.11 µM. The half-inhibitory concentration (IC50) at EP3 receptor [2] worked out at 0.171 µM.

`CCn1ncc2c(F)cc(-c3ccc(C(C(C)C)N4CCS(=O)(=O)CC4)c(=O)[nH]3)cc21` (centres unmarked) [Compound #168, 3-(1-(1,1-dioxidothiomorpholino)-2-methylpropyl)-6-(1-ethyl-4-fluoro-1H-indazol-6-yl)pyridin-2(1H)-one]: the Ki at EP3 receptor [1] was determined as 0.026 µM. Besides, the IC50 at EP3 receptor [2] came to 0.13 µM.

Regarding `CC(C)(CC1OC(=O)NC1=O)c1ccc(-c2ccc3cccc(F)c3c2)[nH]c1=O` (centres unmarked) [compound 1, 5-(2-(6-(8-fluoronaphthalen-2-yl)-2-oxo-1,2-dihydropyridin-3-yl)-2-methylpropyl) oxazolidine-2,4-dione], at EP3 receptor [1], the Ki stood at 0.039 µM. In addition, the concentration for half-maximal inhibition (IC50) on EP3 receptor [2] stood at 0.088 µM.

Regarding `CCN1CCOc2ccc(-c3ccc(C(CN4CCS(=O)(=O)CC4)C(C)C)c(=O)[nH]3)cc21` (centres unmarked) [Compound #104, 3-(1-(1,1-dioxidothiomorpholino)-3-methylbutan-2-yl)-6-(4-ethyl-3,4-dihydro-2H-benzo[b][1,4]oxazin-6-yl)pyridin-2(1H)-one], the Ki at EP3 receptor [1] worked out at 0.053 µM. On EP3 receptor [2], the IC50 is 0.375 µM.

For the molecule `CCn1cnc2c(F)c(-c3ccc(C(C=C4OC(=O)NC4=O)C(C)C)c(=O)[nH]3)ccc21` (centres unmarked) [compound 90, 5-(2-(6-(1-ethyl-4-fluoro-1H-benzo[d]imidazol-5-yl)-2-oxo-1,2-dihydropyridin-3-yl)-3-methylbutyli-dene)oxazolidine-2,4-dione], the Ki at EP3 receptor [1] was 0.633 µM. Further, the IC50 on EP3 receptor [2] amounted to 5.43 µM.

Turning to `O=c1[nH]c(-c2ccc3ccccc3c2)ccc1C1CCNCC1` [compound 194, 6-(naphthalen-2-yl)-3-(piperidin-4-yl)pyridin-2(1H)-one], at EP3 receptor [1], the inhibitory constant (Ki) was greater than 10 µM. Further, the IC50 on EP3 receptor [2] is greater than 20 µM.

As to `CC(C)C(/C=C1\OC(=O)NC1=O)c1ccc(-c2cc(Cl)c3c(c2)ncn3C)[nH]c1=O` (centres unmarked) [compound 97, (Z)-5-(2-(6-(7-chloro-1-methyl-1H-benzo[d]imidazol-5-yl)-2-oxo-1,2-dihydropyridin-3-yl)-3-methylbutylidene)oxazolidine-2,4-dione], the Ki on EP3 receptor [1] is 0.179 µM. Moreover, the IC50 on EP3 receptor [2] is 0.666 µM.

For `CCN1CCOc2ccc(-c3ccc(C(C(C)C)N4CCS(=O)(=O)CC4)c(=O)[nH]3)cc21` (centres unmarked) [Compound #169, 3-(1-(1,1-dioxidothiomorpholino)-2-methylpropyl)-6-(4-ethyl-3,4-dihydro-2H-benzo[b][1,4]oxazin-6-yl)pyridin-2(1H)-one], on EP3 receptor [1], the Ki turned out to be 0.051 µM. Further, the IC50 at EP3 receptor [2] is 0.476 µM.

On to `Cc1cc(C(c2ncc[nH]2)C(C)C)c(=O)[nH]c1-c1ccc2cccc(F)c2c1` (centres unmarked) [compound 82, 3-(1-(1H-imidazol-2-yl)-2-methylpropyl)-6-(8-fluoronaphthalen-2-yl)-5-methylpyridin-2(1H)-one], for which the inhibition constant (Ki) on EP3 receptor [1] is 0.023 µM. Besides, on EP3 receptor [2], the IC50 was found to be 0.137 µM.

Turning to `CC(C)C(c1ccc(-c2ccc3cccc(F)c3c2)[nH]c1=O)n1cnc(N)n1` (centres unmarked) [compound 161, 3-(1-(3-amino-1H-1,2,4-triazol-1-yl)-2-methylpropyl)-6-(8-fluoronaphthalen-2-yl)pyridin-2(1H)-one], at EP3 receptor [1], the Ki stood at 0.027 µM. For the same molecule, at EP3 receptor [2], the IC50 turned out to be 0.095 µM.

In the case of `CCn1ncc2c(F)cc(-c3[nH]c(=O)c(C(/C=C4\OC(=O)NC4=O)C(C)C)cc3C)cc21` (centres unmarked) [compound 111, (Z)-5-(2-(6-(1-ethyl-4-fluoro-1H-indazol-6-yl)-5-methyl-2-oxo-1,2-dihydropyridin-3-yl)-3-methylbutylidene)oxazolidine-2,4-dione], the inhibitory constant (Ki) at EP3 receptor [1] was 0.162 µM. For the same molecule, the IC50 at EP3 receptor [2] is 0.585 µM.

As for `CC(C)C1(Cc2ccc(-c3ccc4cccc(F)c4c3)[nH]c2=O)OC(=O)NC1=O` (centres unmarked) [Compound #262, 5-((6-(8-fluoronaphthalen-2-yl)-2-oxo-1,2-dihydropyridin-3-yl)methyl)-5-isopropyloxazolidine-2,4-dione], at EP3 receptor [1], the Ki came to 0.152 µM. For the same molecule, the IC50 at EP3 receptor [2] came to 0.282 µM.

`CC1(c2ccc(-c3ccc4ccccc4c3)[nH]c2=O)C(=O)Nc2nccn21` (centres unmarked) [compound 153, 3-methyl-3-(6-(naphthalen-2-yl)-2-oxo-1,2-dihydropyridin-3-yl)-1H-imidazo[1,2-a]imidazol-2(3H)-one]: the Ki at EP3 receptor [1] was determined as 0.043 µM. The IC50 at EP3 receptor [2] was 0.4 µM.

On to `CC(C)C1(c2ccc(-c3ccc4cccc(F)c4c3)[nH]c2=O)NC(=S)NC1=O` (centres unmarked) [compound 294, 6-(8-fluoronaphthalen-2-yl)-3-(4-isopropyl-5-oxo-2-thioxoimidazolidin-4-yl)pyridin-2(1H)-one], for which the Ki on EP3 receptor [1] was determined as 0.006 µM. For the same molecule, the IC50 at EP3 receptor [2] stood at 0.056 µM.

Turning to `CCn1ncc2c(F)cc(-c3ccc(C4CN(S(=O)(=O)C(C)C)C4)c(=O)[nH]3)cc21` [compound 214, 6-(1-ethyl-4-fluoro-1H-indazol-6-yl)-3-(1-(isopropylsulfonyl)azetidin-3-yl)pyridin-2(1H)-one], on EP3 receptor [1], the Ki is greater than 10 µM. Moreover, at EP3 receptor [2], the IC50 was greater than 20 µM.

Take `CC(=C1OC(=O)NC1=O)C(c1ccc(-c2ccc3cccc(F)c3c2)[nH]c1=O)C(C)C` (centres unmarked) [compound 84]: the Ki at EP3 receptor [1] was determined as 0.007 µM. For the same molecule, on EP3 receptor [2], the IC50 is 0.026 µM.

As for `CC(C)C(N/C(N)=N/C#N)c1ccc(-c2ccc3cccc(F)c3c2)[nH]c1=O` (centres unmarked) [compound 268, (E)-2-cyano-1-(1-(6-(8-fluoronaphthalen-2-yl)-2-oxo-1,2-dihydropyridin-3-yl)-2-methylpropyl)quanidine], the Ki at EP3 receptor [1] is 0.006 µM. Moreover, the IC50 on EP3 receptor [2] turned out to be 0.017 µM.
